Test results from US11426443B2, “Compositions and methods for invasive and non-invasive procedural skincare” (Alastin Skincare, Inc., priority 2016, dated 2022).

Assays:
[1] = test system: MMP-2; details: wound chamber, vs control, cited from earlier work
[2] = test system: VEGF; details: pg VEGF/ng DNA as a function of GHK ng/mL; FIG. 11; cited from earlier work
[3] = type: physicochemical
Excerpt: Certain components of the formulation tend to be difficult to solubilize in conventional formulations. […] For topical compositions containing from about 0.05% by weight to about 0.1% by weight phosphatidyl serine and/or from about 0.05% by weight to about 0.1% by weight oleuropein, caprylyl methicone in an amount of from about 0.5% by weight to about 1% by weight of caprylyl methicone can solubilize these components in an anhydrous formulation.
In Formula 8B, the amount of palmitoyl tripeptide was increased to 3%, and phosphatidylserine (lipoid PS P 70) was added, along with oleuropein 80% at 0.025%. […] In Formula 9B, the concentration of heptyl undecylenate was lowered to 2.5%, caprylyl methicone was added to solubilize the Lipoind PS P 70, which was increased to 0.05%, and oleuropein 80% was increased to 0.05%. The viscosity for Formula 9B was approximately 5000 cPs.

Compound	gelatinolytic activity (peaks area/μg protein), MMP-2 ([1]; from day 3, peaking at days 18-22, FIG. 9)	gelatinolytic activity (peaks area/μg protein) ([1]; from day 12, peaking at days 18-22, FIG. 10)	secretion of VEGF [2]	solubility in heptyl undecylenate [3]
glycine-histidine-lysine [GHK]	far greater degree than control	far greater degree than control	dose-dependently increases	–
C/C=C1/[C@H](O[C@@H]2O[C@H](CO)[C@@H](O)[C@H](O)[C@H]2O)OC=C(C(=O)OC)[C@H]1CC(=O)OCCc1ccc(O)c(O)c1 [oleuropein]	–	–	–	poor solubility
phosphatidylserine [Lipoid PS P70]	–	–	–	poor solubility
